Assay [1] deals with ICP4. The experiment in a line: Western blot of ICP4 in HrR3 infected U87 cells. The format is cell-based, HSV-1. The note with it: 0.5 μM, 1 μM and 10 μM nifuroxazide, HrR3 MOI-3, 24 hours. The procedure: (§1) FIGS. 4A-4C show the effect of nifuroxazide on HSV-1 gene expression. (FIG. 4A) U87 cells were treated with HrR3 viruses at a MOI-3 and indicated doses of nifuroxazide. 24 hours post infected, total protein was extracted and subjected to western blot analysis. (FIG. 4B) U87 cells were treated with HrR3 at a MOI-5 and indicated concentration of nifuroxazide for 6 hours. ICP27 mRNA level was detected by RT-qPCR. (FIG. 4C) Relative mRNA level (2^−ΔΔCT) is shown. Data are presented as mean SD, *P<0.05 vs corresponding vehicle treatment.
(§2) In this example, the underlying mechanism of nifuroxazide mediated oHSV-1 replication enhancement was examined. The effect of nifuroxazide on viral immediate early gene, ICP27 and ICP4 expression was established by Western blot analysis.
(Immunoblotting shows a protein as a band on a membrane.)

Assay [2] addresses T1, STAT1 (Homo sapiens, UniProt P42224).
T1 construct: Extracted protein was then subjected to western blot assay; endogenous in cells; host or cells: U87 cells, with or without HrR3 infection
T1 sequence (P42224 1-750): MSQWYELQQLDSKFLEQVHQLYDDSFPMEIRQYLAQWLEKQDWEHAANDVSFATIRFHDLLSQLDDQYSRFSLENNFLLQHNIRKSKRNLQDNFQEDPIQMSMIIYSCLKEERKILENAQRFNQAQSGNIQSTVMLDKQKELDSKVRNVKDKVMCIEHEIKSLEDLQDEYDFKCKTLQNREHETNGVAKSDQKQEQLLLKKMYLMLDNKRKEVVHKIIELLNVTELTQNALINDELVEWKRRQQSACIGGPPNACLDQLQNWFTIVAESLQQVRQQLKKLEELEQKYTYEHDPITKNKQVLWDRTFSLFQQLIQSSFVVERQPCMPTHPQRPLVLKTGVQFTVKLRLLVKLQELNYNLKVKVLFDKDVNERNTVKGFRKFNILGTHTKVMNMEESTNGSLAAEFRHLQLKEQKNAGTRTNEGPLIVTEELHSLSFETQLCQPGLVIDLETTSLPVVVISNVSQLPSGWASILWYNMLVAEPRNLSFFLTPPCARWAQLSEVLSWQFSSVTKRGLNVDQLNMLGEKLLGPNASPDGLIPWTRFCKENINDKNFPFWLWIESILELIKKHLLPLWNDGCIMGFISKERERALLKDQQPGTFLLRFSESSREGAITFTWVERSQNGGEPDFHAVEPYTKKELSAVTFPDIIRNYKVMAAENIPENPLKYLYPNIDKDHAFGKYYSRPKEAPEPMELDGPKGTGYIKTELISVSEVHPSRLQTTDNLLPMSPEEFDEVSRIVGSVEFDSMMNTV
The assay can be described thus: Western blot of STAT1 phosphorylation in U87 cells. Format: cell-based. The procedure:
(FIG. 5A) U87 cells were treated with HrR3 at a MOI of 5 and indicated concentration of nifuroxazide for 6 hours. Extracted protein was then subjected to western blot assay. (FIG. 5B) U87 cells were treated with indicated concentration of HrR3 or nifuroxazide or stattic or in combination for 72 hours. Cytotoxicity was measured by MTT assay. (FIG. 5C) Relative mRNA level (2^−ΔΔCT) is shown. Data are presented as mean SD, *P<0.05 vs corresponding vehicle treatment.
FIG. 19A and FIG. 19B, U87 cells (A) or CT26 cells (B) were treated with the indicated concentrations of HrR3 or NF or a combination. Total protein was extracted after 24 hours and subjected to western blot analysis. Band intensity was measured using Image J software and normalized to β-actin. Samples were run in triplicate and data are as means±S.E. Statistically significant differences are indicated by P<0.05 or P<0.01. FIG. 19C, Mice subcutaneously bearing U87 tumors were intratumorally injected with a single dose of HrR3 virus (1×10^6 PFU) and/or peritoneally injected doses of NF as indicated. Tumors were harvested on day 10 post treatment and total protein was extracted from a mouse of each treatment group and subjected to western blot analysis in triplicate. Results are reported as means±S.E.
Expression of key regulator of the Type1 interferon signaling, STAT1 and STAT3, was determined in nifuroxazide treated oHSV-1 infected U87 cells.
NF is a known inhibitor of STAT1 and STAT3. To evaluate the underlying molecular mechanism of the anti-tumour effect of the NF and oHSV-1 combination, the STAT1 and STAT3 status in U87 cells (FIG. 19A) and CT26 cells (FIG. 19B) cells was determined after an overnight treatment with NF and oncolytic viruses.

Assay [3] deals with ICP27. The assay can be described thus: Western blot of ICP27 in HrR3 infected U87 cells. Format: cell-based, HSV-1. The note with it: 0.5 μM, 1 μM and 10 μM nifuroxazide, HrR3 MOI-3, 24 hours. The procedure:
as §1, §2

For assay [4], the system named is G207 in U87 and MG co-culture. The experiment in a line: G207 replication in glioma-microglia co-cultures treated with C16. The format is cell-based, HSV-1. Conditions: 0.5 μM of C16. On the procedure:
FIG. 12B depicts an electrophoresis gel showing total proteins that were harvested from G2O7 infected microglia cells at 24 hours post treatment with either 1 μM of C16, 1 μM of Bay11, or 100 μM of AG. ICP27, ICP4, and […] expression was measured by western blot assay. U87 and MG co-culture were pretreated with 0.5 μM of C16 for 1 hour.
FIG. 12D is a bar graph showing G207 viral replication increasing by 33% in glioma-microglia co-cultures treated with C16.
U87 (5×104) alone or U87+microglia co-culture (5×104+5×104) or BV2 microglia cells (5×104) alone were seeded into a 24-well plate. After overnight incubation (to allow the cells to attach), cells were pretreated with indicated concentration of NFkB inhibitor, Bay-11 (Santa Cruz, Canada) or an indicated concentration of imidazolo-oxindole derivative C16 (Milipore, Canada) or vehicle for 1-2 hours. The cells were then infected with oHSV-1 (G207 or HrR3) virus at a MOI of 1 in presence of chemical inhibitors for another 2 days. The viruses were harvested and titrated in vero cells by plaque forming assay in 12-well plates by triplicates.
The effects of a PKR inhibitor (C16), a NFkappaB inhibitor (Bay11), and an iNOS inhibitor (aminoguanidine hydrochloride) were tested on G207 replication in BV2 cells (Example 15). […]

Each structure is given as a SMILES string.

Turning to `O=C(N/N=C/c1ccc([N+](=O)[O-])o1)c1ccc(O)cc1` [nifuroxazide, Benzoic acid, 4-hydroxy-, [(5-nitro-2-furanyl)metylene]hydrazide], the ICP4 expression result in assay [1] was “not ICP4 expression”. For the same compound, the “HrR3 induced upregulation of STAT1 phosphorylation” value in assay [2] (24 hours) is “effectively suppressed”. Moreover, the STAT1 phosphorylation entry in assay [2] (HrR3 MOI of 5, 6 hours) was “dose dependent STAT1 and STAT3 phosphorylation reduction”. Also, in assay [2] (NF alone, 24 hours), the “phosphorylation of STAT1” value is reported as “dose dependent inhibition”. Also, the ICP27 expression result in assay [3] is reported as “significantly increases ICP27 expression”.
In the case of `O=C1Nc2ccc3ncsc3c2/C1=C/c1c[nH]cn1` [C16, 6,8-Dihydro-8-(1H-imidazol-5-ylmethylene)-7H-pyrrolo[2,3-g]benzothiazol-7-one], the “G207 viral replication increased” value in assay [4] turned out to be 33%.

For the origin of these results see US20190307820A1, “COMPOSITIONS AND METHODS OF USING STAT1/3 INHIBITORS WITH ONCOLYTIC HERPES VIRUS” (priority 2016, published 2019).
